Calls of active or inactive are those of the source. The rule behind the calls is not given here.
Legend:
HBE [1] = assay: Anti-inflammatory activity against HBE cells assessed as inhibition of LPS-induced IL-8 level pretreated for 30 mins followed by LPS treatment for 24 hrs by ELISA; details: Homo sapiens, dose <= 5.0 µM, time 24.5 hrs
Procathepsin L = Procathepsin L (Homo sapiens, UniProt P07711); assay: Inhibition of recombinant human Cat L using f Z-Phe-Arg-AMC as substrate preincubated for 30 mins followed by substrate addition
RAW264.7 [2] = assay: Anti-inflammatory activity against mouse RAW264.7 cells assessed as inhibition of LPS-induced COX-2 level by Western blot analysis; assay type: functional, cell-based; details: dose 50-500 nM
RAW264.7 [3] = assay: Anti-inflammatory activity against mouse RAW264.7 cells assessed as inhibition of LPS-induced IL-6 level
Mus musculus [4] = assay: (§1) Anti-inflammatory activity in C57BL/6 mouse model of LPS-induced acute lung injury assessed as decrease in inflammatory cell infiltration in lung at 10 mg/kg, ip treated for 3 days followed by LPS treatment after 1 hr post-compound administration on fourth day measured after 18 hrs post-LPS treatment by H and E staining based analysis; assay type: functional, organism-based; details: time 91.0 hrs
RAW264.7 [5] = assay: Anti-inflammatory activity against mouse RAW264.7 cells assessed as inhibition of LPS-induced TNF-alpha mRNA level at 50 to 500 nM by RT-qPCR analysis; assay type: functional, cell-based; details: dose 50-500 nM
Mus musculus [6] = assay: as §1, with “in disruption of epithelial” for “in inflammatory”, “cell structures” for “cell infiltration”; assay type: functional, organism-based; details: time 91.0 hrs
[7] = Half life in Sprague-Dawley rat at 3.5 mg/kg, iv measured for 24 hrs by LC-MS/MS analysis; assay type: ADME, organism-based; details: in vivo
[8] = AUC (0 to t) in Sprague-Dawley rat at 3.5 mg/kg, iv measured for 24 hrs by LC-MS/MS analysis; assay type: ADME, organism-based; details: in vivo
RAW264.7 [9] = assay: Anti-inflammatory activity against mouse RAW264.7 cells assessed as inhibition of LPS-induced iNOS level by Western blot analysis; assay type: functional, cell-based; details: dose 50-500 nM
[10] = Anti-inflammatory activity against HBE cells assessed as inhibition of LPS-induced IL-6 level at 5 uM pretreated for 30 mins followed by LPS treatment for 24 hrs by ELISA relative to control; assay type: functional; details: Homo sapiens, time 24.5 hrs
cells = details: Homo sapiens, HBE
Description: Anti-inflammatory activity against HBE cells assessed as inhibition of LPS-induced IL-6 level pretreated for 30 mins followed by LPS treatment for 24 hrs by ELISA

[11] = target: T1, Tyrosine-protein kinase JAK3 (Homo sapiens, UniProt P52333); assay: Inhibition of JAK3 (unknown origin) using TK-biotin as substrate incubated for 30 mins in presence of ATP by HTRF assay
T1 sequence (P52333 whole entry): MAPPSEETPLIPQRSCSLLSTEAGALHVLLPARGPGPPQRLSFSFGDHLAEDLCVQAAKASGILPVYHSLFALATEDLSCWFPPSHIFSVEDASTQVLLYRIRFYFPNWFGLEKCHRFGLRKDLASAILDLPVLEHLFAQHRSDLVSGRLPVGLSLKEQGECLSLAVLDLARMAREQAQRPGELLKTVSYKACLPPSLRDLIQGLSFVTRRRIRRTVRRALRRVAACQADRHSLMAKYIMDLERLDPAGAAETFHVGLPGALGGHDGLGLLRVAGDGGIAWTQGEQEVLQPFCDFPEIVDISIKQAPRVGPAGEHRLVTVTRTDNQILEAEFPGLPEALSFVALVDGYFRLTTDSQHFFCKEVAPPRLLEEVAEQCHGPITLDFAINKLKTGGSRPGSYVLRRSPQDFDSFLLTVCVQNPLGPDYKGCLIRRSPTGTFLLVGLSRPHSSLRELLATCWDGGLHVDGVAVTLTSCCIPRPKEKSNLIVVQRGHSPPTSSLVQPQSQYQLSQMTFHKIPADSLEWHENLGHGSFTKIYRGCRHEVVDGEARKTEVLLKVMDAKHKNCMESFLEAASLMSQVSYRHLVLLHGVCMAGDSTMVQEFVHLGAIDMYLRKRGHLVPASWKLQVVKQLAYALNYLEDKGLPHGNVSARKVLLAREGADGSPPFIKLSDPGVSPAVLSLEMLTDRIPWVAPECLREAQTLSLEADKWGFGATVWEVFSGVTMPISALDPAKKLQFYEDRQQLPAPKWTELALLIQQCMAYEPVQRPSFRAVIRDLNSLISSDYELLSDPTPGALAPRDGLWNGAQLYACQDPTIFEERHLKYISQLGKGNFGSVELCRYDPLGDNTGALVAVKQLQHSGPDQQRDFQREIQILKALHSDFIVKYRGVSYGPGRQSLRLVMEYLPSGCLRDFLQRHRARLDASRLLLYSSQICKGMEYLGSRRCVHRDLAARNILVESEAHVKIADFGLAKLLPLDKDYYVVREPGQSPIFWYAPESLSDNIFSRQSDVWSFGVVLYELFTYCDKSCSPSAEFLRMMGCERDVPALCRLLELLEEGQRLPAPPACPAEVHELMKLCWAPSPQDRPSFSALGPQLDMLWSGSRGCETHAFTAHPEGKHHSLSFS

[12] = AUC (0 to infinity) in Sprague-Dawley rat at 3.5 mg/kg, ip measured for 24 hrs by LC-MS/MS analysis; assay type: ADME, organism-based; details: in vivo
[13] = target: Non-receptor tyrosine-protein kinase TYK2 (Homo sapiens, UniProt P29597); assay: Inhibition of TYK2 (unknown origin) using TK-biotin as substrate incubated for 120 mins in presence of ATP by HTRF assay
HBE [14] = assay: Anti-inflammatory activity against HBE cells assessed as inhibition of LPS-induced p-Ikappa-Balpha level pretreated for 30 mis followed by LPS treatment for 16 hrs by Western blot analysis; assay type: functional, cell-based; details: Homo sapiens, dose 0.5-5 µM, time 16.5 hrs
RAW264.7 [15] = assay: Cytotoxicity against mouse RAW264.7 cells assessed as cell viability at 0.5 to 5 uM; assay type: toxicity, cell-based; details: raw264.7, 5 µM, dose 0.5-5 µM
[16] = AUC (0 to infinity) in Sprague-Dawley rat at 3.5 mg/kg, iv measured for 24 hrs by LC-MS/MS analysis; assay type: ADME, organism-based; details: in vivo
[17] = Cmax in Sprague-Dawley rat at 3.5 mg/kg, ip measured for 24 hrs by LC-MS/MS analysis; assay type: ADME, organism-based; details: in vivo
RAW264.7 [18] = assay: Anti-inflammatory activity against mouse RAW264.7 cells assessed as inhibition of LPS-induced IL-1beta mRNA level at 50 to 500 nM by RT-qPCR analysis; assay type: functional, cell-based; details: dose 50-500 nM
[19] = AUC (0 to t) in Sprague-Dawley rat at 3.5 mg/kg, po measured for 24 hrs by LC-MS/MS analysis; assay type: ADME, organism-based; details: in vivo
RAW264.7 [20] = assay: Anti-inflammatory activity against mouse RAW264.7 cells assessed as inhibition of LPS-induced IL-1beta level at 50 to 500 nM; assay type: functional, cell-based; details: dose 50-500 nM
[21] = target: Tyrosine-protein kinase JAK2 (Homo sapiens, UniProt O60674); assay: Inhibition of JAK2 (unknown origin) using TK-biotin as substrate incubated for 30 mins in presence of ATP by HTRF assay
[22] = Cmax in Sprague-Dawley rat at 3.5 mg/kg, po measured for 24 hrs by LC-MS/MS analysis; assay type: ADME, organism-based; details: in vivo
[23] = Half life in Sprague-Dawley rat at 3.5 mg/kg, po measured for 24 hrs by LC-MS/MS analysis; assay type: ADME, organism-based; details: in vivo

Tyrosine-protein kinase JAK2, sequence (O60674 whole entry): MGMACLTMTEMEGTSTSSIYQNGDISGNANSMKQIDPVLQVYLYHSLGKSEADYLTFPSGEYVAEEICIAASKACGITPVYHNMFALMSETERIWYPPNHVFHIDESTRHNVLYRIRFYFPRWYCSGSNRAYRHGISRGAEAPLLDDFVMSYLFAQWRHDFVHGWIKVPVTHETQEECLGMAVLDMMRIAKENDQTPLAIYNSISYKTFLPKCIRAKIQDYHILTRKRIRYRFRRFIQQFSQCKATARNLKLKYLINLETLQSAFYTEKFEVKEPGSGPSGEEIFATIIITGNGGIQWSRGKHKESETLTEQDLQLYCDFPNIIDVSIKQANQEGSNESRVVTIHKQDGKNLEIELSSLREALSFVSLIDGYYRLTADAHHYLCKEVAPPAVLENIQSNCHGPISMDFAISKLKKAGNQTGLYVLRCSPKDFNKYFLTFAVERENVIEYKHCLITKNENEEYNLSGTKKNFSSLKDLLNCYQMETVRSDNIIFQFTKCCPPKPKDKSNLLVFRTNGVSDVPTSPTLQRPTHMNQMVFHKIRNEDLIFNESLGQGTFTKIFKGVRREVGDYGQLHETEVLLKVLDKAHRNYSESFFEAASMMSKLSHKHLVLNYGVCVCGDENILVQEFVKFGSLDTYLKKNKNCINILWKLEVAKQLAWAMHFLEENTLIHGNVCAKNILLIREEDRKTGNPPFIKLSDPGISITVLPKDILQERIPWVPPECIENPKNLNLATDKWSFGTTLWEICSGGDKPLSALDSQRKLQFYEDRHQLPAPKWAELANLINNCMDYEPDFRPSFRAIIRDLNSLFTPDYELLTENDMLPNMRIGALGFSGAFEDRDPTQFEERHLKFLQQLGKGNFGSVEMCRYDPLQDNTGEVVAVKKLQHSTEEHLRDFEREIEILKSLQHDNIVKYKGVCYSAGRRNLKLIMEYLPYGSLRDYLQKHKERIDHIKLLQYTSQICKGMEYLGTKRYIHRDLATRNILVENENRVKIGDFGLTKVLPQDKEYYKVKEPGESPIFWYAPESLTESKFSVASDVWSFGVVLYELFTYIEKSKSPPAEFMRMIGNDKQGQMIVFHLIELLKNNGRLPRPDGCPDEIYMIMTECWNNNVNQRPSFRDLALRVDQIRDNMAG
Procathepsin L, sequence (P07711 whole entry): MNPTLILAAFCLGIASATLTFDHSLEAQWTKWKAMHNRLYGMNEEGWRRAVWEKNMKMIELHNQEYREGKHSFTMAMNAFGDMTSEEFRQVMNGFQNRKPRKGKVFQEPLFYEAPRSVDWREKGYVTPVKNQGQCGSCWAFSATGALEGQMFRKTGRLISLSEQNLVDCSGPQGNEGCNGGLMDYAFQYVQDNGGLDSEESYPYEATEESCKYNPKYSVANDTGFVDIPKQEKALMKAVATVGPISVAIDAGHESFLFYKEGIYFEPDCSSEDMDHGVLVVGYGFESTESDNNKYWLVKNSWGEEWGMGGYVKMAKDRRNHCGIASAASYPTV
Non-receptor tyrosine-protein kinase TYK2, sequence (P29597 whole entry): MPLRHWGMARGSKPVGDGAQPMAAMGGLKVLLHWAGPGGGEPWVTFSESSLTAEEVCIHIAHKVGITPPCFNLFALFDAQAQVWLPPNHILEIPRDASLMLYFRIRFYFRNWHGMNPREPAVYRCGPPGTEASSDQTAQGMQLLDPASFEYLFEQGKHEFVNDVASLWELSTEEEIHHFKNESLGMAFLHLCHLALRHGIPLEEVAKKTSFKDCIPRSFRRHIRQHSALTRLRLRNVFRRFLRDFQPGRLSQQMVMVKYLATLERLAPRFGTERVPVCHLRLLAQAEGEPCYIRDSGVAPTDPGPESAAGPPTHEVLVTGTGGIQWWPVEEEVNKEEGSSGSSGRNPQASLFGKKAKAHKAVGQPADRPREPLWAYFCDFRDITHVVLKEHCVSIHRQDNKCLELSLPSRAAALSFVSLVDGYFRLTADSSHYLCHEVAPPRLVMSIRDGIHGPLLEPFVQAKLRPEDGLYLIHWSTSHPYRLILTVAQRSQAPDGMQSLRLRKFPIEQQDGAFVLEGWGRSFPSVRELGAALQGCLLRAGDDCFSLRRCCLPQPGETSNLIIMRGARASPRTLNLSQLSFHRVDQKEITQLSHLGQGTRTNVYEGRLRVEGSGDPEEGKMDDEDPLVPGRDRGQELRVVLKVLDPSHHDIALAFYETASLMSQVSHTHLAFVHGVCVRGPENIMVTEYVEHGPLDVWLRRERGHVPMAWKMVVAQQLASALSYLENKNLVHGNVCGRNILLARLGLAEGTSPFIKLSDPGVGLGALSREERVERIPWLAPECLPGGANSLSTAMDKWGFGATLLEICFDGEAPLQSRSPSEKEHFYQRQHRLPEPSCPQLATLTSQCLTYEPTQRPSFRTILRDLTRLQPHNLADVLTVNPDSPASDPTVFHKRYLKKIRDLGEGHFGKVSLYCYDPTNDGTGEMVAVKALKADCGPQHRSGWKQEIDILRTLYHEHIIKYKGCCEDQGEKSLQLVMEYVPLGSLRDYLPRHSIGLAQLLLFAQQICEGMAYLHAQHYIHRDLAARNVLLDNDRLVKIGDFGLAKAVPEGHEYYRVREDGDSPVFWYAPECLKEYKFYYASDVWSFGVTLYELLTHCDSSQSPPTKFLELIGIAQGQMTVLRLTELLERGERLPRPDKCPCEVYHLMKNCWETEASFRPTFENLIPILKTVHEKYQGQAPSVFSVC

Cl.Cn1cc(-c2ccnc(Nc3cccc(N)c3)n2)c2ccccc21
inhibition (HBE [1]): Dose-dependent-effect | IC50 (Procathepsin L): 690 nM | inhibition (RAW264.7 [2]): Dose-dependent-effect | IC50 (RAW264.7 [3]): 50.1 nM | Activity (Mus musculus [4]): Active | inhibition (RAW264.7 [5]): Active | Activity (Mus musculus [6]): Active | half-life [7]: 8.29 h | AUC(0-t) at 24 h [8]: 633 ng·h/mL | inhibition (RAW264.7 [9]): Dose-dependent-effect | inhibition at 5 µM [10]: 83% | IC50 (cells): 614 nM | IC50 [11]: 27.3 nM | AUC(0-inf) [12]: 416 ng·h/mL | IC50 [13]: 173 nM | inhibition (HBE [14]): Dose-dependent-effect | Activity (RAW264.7 [15]): Non-toxic | AUC(0-inf) [16]: 680 ng·h/mL | Cmax [17]: 193 ng/mL | inhibition (RAW264.7 [18]): Active | AUC(0-t) at 24 h [19]: 157 ng·h/mL | inhibition (RAW264.7 [20]): Active | IC50 [21]: 5.25 nM | Cmax [22]: 65.2 ng/mL | half-life [23]: 3.21 h
